In patent US4118561A, “7-(Substituted)-7H-pyrrolo[3,2-f]quinazoline-1,3-diamines” (priority 1977, dated 1978):
≈ marks a conversion by molar mass, not a printed value.

How the values were obtained:
S. aureus Smith = assay: In vitro antibacterial activity (MIC), S. aureus Smith; conditions: Staphylococcus aureus, 18 h
N. catarrhalis 8193 = assay: In vitro antibacterial activity (MIC), N. catarrhalis 8193; conditions: 18 h
K. pneumoniae 10031 = assay: In vitro antibacterial activity (MIC), K. pneumoniae 10031; conditions: Klebsiella pneumoniae, 10031, 18 h
P. vulgaris 6896 = assay: In vitro antibacterial activity (MIC), P. vulgaris 6896; conditions: Proteus vulgaris, 6896, 18 h
E. coli 9637 = assay: In vitro antibacterial activity (MIC), E. coli 9637; conditions: Escherichia coli, 9637, 18 h
S. paratyphi 11737 = assay: In vitro antibacterial activity (MIC), S. paratyphi 11737; format: cell-based; conditions: Salmonella enterica, 18 h
S. aureus 53-180 = assay: In vitro antibacterial activity (MIC), S. aureus 53-180; conditions: Staphylococcus aureus, 53180, 18 h

Structure (SMILES) | MIC (S. aureus Smith) [µg/mL] | MIC (N. catarrhalis 8193) [µg/mL] | MIC (K. pneumoniae 10031) [µg/mL] | MIC (P. vulgaris 6896) [µg/mL] | MIC (E. coli 9637) [µg/mL] | MIC (S. paratyphi 11737) [µg/mL] | MIC (S. aureus 53-180) [µg/mL]
Nc1nc(N)c2c(ccc3[nH]ccc32)n1 [Example 1, 7-H-Pyrrolo[3,2-f]quinazoline-1,3-diamine] | 31.3 (≈ 157 µM) | 0.244 (≈ 1.22 µM) | 7.81 (≈ 39.2 µM) | 15.6 (≈ 78.3 µM) | 3.9 (≈ 19.6 µM) | 31.3 (≈ 157 µM) | 31.3 (≈ 157 µM)
Nc1nc(N)c2c(ccc3c2ccn3Cc2ccc(C(F)(F)F)cc2)n1 [Example 13] | 1.95 (≈ 5.46 µM) | 0.031 (≈ 0.0868 µM) | 0.976 (≈ 2.73 µM) | 31.3 (≈ 87.6 µM) | 3.9 (≈ 10.9 µM) | 15.6 (≈ 43.7 µM) | 0.976 (≈ 2.73 µM)
Cc1cccc(C)c1Cn1ccc2c3c(N)nc(N)nc3ccc21 [Example 24] | 250 (≈ 788 µM) | 0.122 (≈ 0.384 µM) | 15.6 (≈ 49.1 µM) | > 250 | 250 (≈ 788 µM) | > 250 | 250 (≈ 788 µM)
Cc1cc(C)cc(Cn2ccc3c4c(N)nc(N)nc4ccc32)c1 [Example 26] | 0.976 (≈ 3.08 µM) | 0.031 (≈ 0.0977 µM) | 0.244 (≈ 0.769 µM) | 15.6 (≈ 49.1 µM) | 7.81 (≈ 24.6 µM) | 15.6 (≈ 49.1 µM) | 0.488 (≈ 1.54 µM)
Cc1cc(C)c(C)c(Cn2ccc3c4c(N)nc(N)nc4ccc32)c1C [Example 28] | 15.6 (≈ 45.2 µM) | 0.244 (≈ 0.706 µM) | 3.9 (≈ 11.3 µM) | > 250 | > 250 | > 250 | 15.6 (≈ 45.2 µM)
COc1cccc(Cn2ccc3c4c(N)nc(N)nc4ccc32)c1OC [Example 35] | 0.488 (≈ 1.4 µM) | 0.122 (≈ 0.349 µM) | 0.488 (≈ 1.4 µM) | 7.81 (≈ 22.4 µM) | 0.488 (≈ 1.4 µM) | 15.6 (≈ 44.6 µM) | 0.244 (≈ 0.698 µM)
COc1ccc(OC)c(Cn2ccc3c4c(N)nc(N)nc4ccc32)c1 [Example 36] | 0.244 (≈ 0.698 µM) | 0.031 (≈ 0.0887 µM) | 0.031 (≈ 0.0887 µM) | 3.9 (≈ 11.2 µM) | 0.976 (≈ 2.79 µM) | 3.9 (≈ 11.2 µM) | 0.122 (≈ 0.349 µM)
CCOc1ccc(Cn2ccc3c4c(N)nc(N)nc4ccc32)cc1 [Example 40] | 1.95 (≈ 5.85 µM) | 0.122 (≈ 0.366 µM) | 3.9 (≈ 11.7 µM) | 7.81 (≈ 23.4 µM) | 1.95 (≈ 5.85 µM) | 7.81 (≈ 23.4 µM) | 0.488 (≈ 1.46 µM)
Nc1nc(N)c2c(ccc3c2ccn3Cc2cscn2)n1 [Example 42] | 0.488 (≈ 1.65 µM) | 0.0038 (≈ 0.0128 µM) | 0.122 (≈ 0.412 µM) | 0.976 (≈ 3.29 µM) | 0.244 (≈ 0.823 µM) | 0.976 (≈ 3.29 µM) | 0.244 (≈ 0.823 µM)
Nc1nc(N)c2c(ccc3c2ccn3Cc2csc3ccccc23)n1 [Example 46] | 31.3 (≈ 90.6 µM) | 1.95 (≈ 5.65 µM) | 15.6 (≈ 45.2 µM) | > 250 | 125 (≈ 362 µM) | > 250 | 31.3 (≈ 90.6 µM)
Cc1noc(C)c1Cn1ccc2c3c(N)nc(N)nc3ccc21 [Example 52] | 1.95 (≈ 6.32 µM) | 0.0152 (≈ 0.0493 µM) | 0.244 (≈ 0.791 µM) | 3.9 (≈ 12.6 µM) | 0.976 (≈ 3.17 µM) | 1.95 (≈ 6.32 µM) | 0.976 (≈ 3.17 µM)
Nc1nc(N)c2c(ccc3c2ccn3CC=Cc2ccccc2)n1 [Example 57] | 1.95 (≈ 6.18 µM) | 0.122 (≈ 0.387 µM) | 0.488 (≈ 1.55 µM) | 7.81 (≈ 24.8 µM) | 3.9 (≈ 12.4 µM) | 15.6 (≈ 49.5 µM) | 0.976 (≈ 3.09 µM)
COc1cc(Cn2ccc3c4c(N)nc(N)nc4ccc32)cc(OC)c1 [Example 58] | 0.488 (≈ 1.4 µM) | 0.061 (≈ 0.175 µM) | 0.122 (≈ 0.349 µM) | 15.6 (≈ 44.6 µM) | 0.976 (≈ 2.79 µM) | 1.95 (≈ 5.58 µM) | 0.244 (≈ 0.698 µM)
Nc1nc(N)c2c(ccc3c2ccn3Cc2cccs2)n1 [Example 59] | 0.244 (≈ 0.826 µM) | 0.0019 (≈ 0.00643 µM) | 0.061 (≈ 0.207 µM) | 0.244 (≈ 0.826 µM) | 0.061 (≈ 0.207 µM) | 0.244 (≈ 0.826 µM) | 0.061 (≈ 0.207 µM)
Nc1nc(N)c2c(ccc3c2ccn3Cc2ccc3ccccc3c2Br)n1 [Example 60] | 31.3 (≈ 74.8 µM) | 0.488 (≈ 1.17 µM) | 15.6 (≈ 37.3 µM) | > 250 | > 250 | > 250 | 15.6 (≈ 37.3 µM)
Cn1ccc2c3c(N)nc(N)nc3ccc21 [Example 65, 7-Methyl-7H-pyrrolo[3,2-f]quinazoline-1,3-diamine] | 62.5 (≈ 293 µM) | 0.031 (≈ 0.145 µM) | 1.95 (≈ 9.14 µM) | 1.95 (≈ 9.14 µM) | 0.976 (≈ 4.58 µM) | 3.9 (≈ 18.3 µM) | 7.81 (≈ 36.6 µM)
